Measured values published in US4863748A, “Dietary products and uses comprising methylsulfonylmethane” (priority 1986, dated 1989).

How the values were obtained:
[1] = Excretion of methylsulfonylmethane; assay type: in vivo
Excerpt: Orally ingested methylsulfonylmethane is stored to some degree in various organs, presumably banked for future sulfur needs of the body. The skin excretion route is unusual, particularly since about one-third of a given oral dose can be found in the perspiration. Like NaCl, excretion depends somewhat on perspiration rate. The accumulation in and excretion of methylsulfonylmethane from the skin is believed to account for its cosmetic effect, viz., more youthful appearing, pliable, blemish-reduced skin. Chemical and radiolabeled sulfur (35-S) assays can be used to determine the extent to which important biomolecules as heparin, insulin, co-enzyme A and other --SH bearing enzymes, biotin, methionine enkaphalin, human growth factor, hemoglobin, calcitonin, fibrinogen, muscle protein and other compounds derive their thiol (--S--) and disulfide (--S--S--) groups from methylsulfonylmethane and the possible preference of methylsulfonylmethane over S-content amino acids as the donor with such synthesis.

[2] = Naturally occurring body levels of methylsulfonylmethane; assay type: in vivo, animals
Excerpt: The methylsulfonylmethane is usually provided in the aninmal's normal feed rations, periodically throughout the day or on successive days, or both, e.g., for 2 to 21 days or even longer. The daily food ration appropriate for the animal being fed is supplemented with an amount of methylsulfonylmethane calculated to correspond to a predetermined amount per total body weight of the animals being fed. The exact amount of methylsulfonylmethane ingested each day is not always critical, particularly when methylsulfonylmethane administration is over an extended period of days, because the ingested methylsulfonylmethane accumulates in the body tissues and fluids, i.e., reaches an effective titer. Methylsulfonylmethane-supplemented rations providing levels of as low as 0.5-1 mg/kg animal body weight are sometimes effective and levels as high as 300 mg/kg body weight or more are well tolerated. The usual target level per individual animal is about 0.2-2.0 mg/kg body weight preferably 0.5-1.0 mg per kg body weight. Total daily supplements corresponding to up to about 1 gm/kg body weight or more, are preferably employed, depending on the degree of deficiency. Healthy animals often have methylsulfonylmethane blood levels of at least 1 ppm, and desirably, enough methylsulfonylmethane is provided to raise blood levels to above 1 ppm. […]

[3] = Tolerance of intravenous infusion; assay type: in vivo, human patients; conditions: for side effect at infusion rate as high as 2 gm/kg/hr: i.v., some patients
Experimental: The amount of methylsulfonylmethane intravenously administered can vary substantially because of its lack of toxicity and adverse side effects. Individual doses can vary from about 0.01 to 2 gm/kg, preferably from about 0.1 to 1 gm/kg, on a body weight basis, the usual dosage range is about 0.25 to 0.75 gm/kg, preferably about 0.5 gm/kg.
When large amounts are administered, e.g., in the order of 1 g/kg of body weight or more, i.e., infusion of 5% to 10% solution of methylsulfonylmethane in water, physiological saline or 5% dextrose is preferred. The rate of administration is preferably no greater than about 1 gm/kg/hr, although infusion rates as high as 2 gm/kg/hr are tolerated by patients, except for light-headedness of the type experienced by some blood donors is experienced by some patients at this rate.
Such massive i.v. administrations can be repeated as frequently as every 24 hours.

[4] = test system: rabbit eye; experiment: Rabbit eye irritated with sodium lauryl sulfate (Example 14); assay type: in vivo; conditions: 10% aqueous solution every hour
[5] = test system: pain and inflammation of musculoskeletal system disorders; experiment: Pain associated with systemic inflammatory disorders (Example 15); assay type: in vivo, human
Excerpt: subject two, presented chronic arthritis with painful involvement of the lower trunk. Over the years they had evaluated most new antiarthritic, analgesic drugs with disappointing results.

[6] = test system: Aspergillus niger; experiment: Antifungal activity; assay type: cell-based; conditions: 500 ppm
Excerpt: (§1) While not as potent or toxic to microbial populations as specific drug agents, by reason of its extremely low host systemic toxicity, methylsulfonylmethane contrasts sharply with present antiinfective therapeutants and methodology. It is doubtful if chemical resistance will develop with infective agents controlled by high, but safe, systemic levels of methylsulfonylmethane.

[7] = test system: Phytophthora cinnamomi; experiment: Antifungal activity; assay type: cell-based; conditions: 500 ppm
Excerpt: as §1

[8] = test system: Sclerotium rolfsii; experiment: Antifungal activity; assay type: cell-based; conditions: 500 ppm
Excerpt: as §1

[9] = test system: Trichomonas vaginalis; experiment: Treatment of Trichomonas vaginalis infection in subjects (Example 28(a)); assay type: in vivo, human
Excerpt: Both had prior courses of therapy for this disorder without adequate response. […]
One subject was later reinfected by their sexual partner but the reinfection was cleared employing a daily douche of 5% aqueous methylsulfonylmethane for one week.

[10] = test system: emphysema and lung tumor respiratory deficiency; experiment: Treatment of lung dysfunction (Example 29); assay type: in vivo, human
Experimental: Seven human subjects with respiratory deficiency were given methylsulfonylmethane by the oral route in amounts ranging from 250-1,500 mg/day, in single or divided units. Five presented emphysema believed associated with cigarette smoking. Two presented tumor involvement of the lung with additional function impairment due to pleural fluid accumulation.
Two of five subjects with emphysema had prior cardiorespiratory function tests and follow-up evaluations at six and eight weeks after starting a course of 500 mg/day orally of methylsulfonylmethane.
Prior to and during the test period, at approximately two-week intervals, all presenting emphysema were required to walk a measured distance compatible with their physical resources. […] The lung cavity fluid problem of each subject disappeared during the first months of the test period.

[11] = test system: intractable pain; experiment: Pain in humans (Example 31); assay type: in vivo, human
Excerpt: The following patients suffering from intractable pain were given methylsulfonylmethane orally in the amounts and for the period of time set forth in the table below: […]

CS(C)(=O)=O [methylsulfonylmethane]
rate of excretion ([1]; i.v. administration): very rapidly excreted | excretion of excess amounts (feces, renal pathway, skin) ([1]; in vivo): excreted unchanged | portion of a given oral dose found in the perspiration ([1]; oral): about one-third | blood level in healthy animals ([2]; healthy animals often): at least 1 ppm | methylsulfonylmethane in the humoral fluid ([2]; with maturity): less than 0.5 ppm | tolerated infusion rate ([3]; i.v. infusion): ≤ 2 gm/kg/hr | side effect at infusion rate as high as 2 gm/kg/hr [3]: light-headedness | side effect at infusion rate as high as 2 gm/kg/hr ([3]; listed as dimethylsulfone): transient light-headedness | clearing of irritated eye [4]: quickly cleared | relief of pain and inflammation, musculoskeletal system disorders ([5]; about 100 up to about 5,000 mg per day): substantial and long lasting relief | relief in migraine sufferers ([5]; oral 50-500 mg per day): substantial relief | pain after about 16 months ([5]; subject two, 1/4-1/2 tsp. daily): substantially pain-free | pain relief by the end of the second week ([5]; subject two, chronic arthritis, 1/2 tsp. daily): almost total pain relief | antiparasitic (antifungal) activity [6]: good antiparasitic activity | antiparasitic (antifungal) activity [7]: good antiparasitic activity | antiparasitic (antifungal) activity [8]: good antiparasitic activity | outcome in subject's partner ([9]; 500 mg twice daily, two weeks): successfully treated | reinfection ([9]; daily douche of 5% aqueous, one week): cleared | cardiorespiratory function values, in particular arterial oxygen tension ([10]; 500 mg/day orally, two emphysema subjects, six and eight weeks): both had values in the normal range | comfortable walking distance ([10]; emphysema sufferers, alone or with 1000 mg ascorbic acid/day, within 2-4 weeks): at least doubled | alertness, comfort and outlook ([10]; two subjects with lung tumors): more alert, comfortable, and with a better outlook and attitude | lung cavity fluid problem ([10]; two subjects with lung tumors, first months): disappeared | Results ([11]; A. B., 69 F, Deg. Arth., 0.5 bid × 18 months): pain relief | Results ([11]; B. A., 63 F, Deg. Arth., 0.25 g qid): pain relief | Results: pain relief ([11]; C. A., 62 M, Bursitis Chronic, 0.25 g bid × 3 months): 50% | Results ([11]; D. B., 35 M, Low back pain, 0.5 g qid × 9 months): pain relief | Results: muscle pain ([11]; I. B., 62 F, Multiple Sclerosis, 0.5 bid × 18 months): reduction | Results ([11]; M. A., 55 F, Rh. Arth., 0.25 g bid × 9 months): pain relief | Results ([11]; N. B., 62 M, Tendonitis, 0.25 g qid): reduced pain | Results ([11]; P. A., 61 F, Deg. Arth., 1 g 4×/day × 19 months): pain relief
